Where a chain is given by its changes, count along the chain named.
Assays:
Type in all cases: biochemical
CAC C155A mutant = target: T1, CAC C155A mutant (Rattus norvegicus, UniProt P97521, C155A); test: Transport assay in proteoliposomes, CAC mutant C155A; details: read-out: IC50 for itaconate inhibition
T1 construct: made in house; host or cells: E. coli C0214
T1 sequence (P97521 1-301 C155A): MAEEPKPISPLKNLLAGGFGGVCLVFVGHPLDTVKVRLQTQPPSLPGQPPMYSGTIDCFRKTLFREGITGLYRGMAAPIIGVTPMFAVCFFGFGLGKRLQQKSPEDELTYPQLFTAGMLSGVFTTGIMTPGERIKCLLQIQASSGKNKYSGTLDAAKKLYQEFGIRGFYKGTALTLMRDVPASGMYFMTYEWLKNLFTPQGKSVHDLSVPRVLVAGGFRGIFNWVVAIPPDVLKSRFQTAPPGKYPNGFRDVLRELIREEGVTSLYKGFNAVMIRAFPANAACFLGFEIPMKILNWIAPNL
Description: (§1) As previously described, the pMW7-WTratCAC recombinant plasmid was used for over-expressing the rat CAC [22]. The overlap extension method was used to introduce the mutations; in the main time, NdeI and HindIII restriction sites were also added using appropriate primers. The PCR products were purified by the QIAEX II Gel Extraction Kit (QIAGEN) and digested with NdeI and HindIII and then ligated into the pMW7. All mutations were verified by DNA sequencing. The resulting plasmid constructs were transformed into E. coli C0214. Overexpression, inclusion body fraction preparation, and purification of the CAC proteins were performed as previously described. […]
(§2) To test the transport activity of the CAC, 550 μL of proteoliposomes was passed through a Sephadex G-75 column to remove the external substrate. […] Transport rates were measured in 10 min, i.e., within the initial linear range of the time course, at 25 °C. After terminating the transport reaction, the external substrate was removed by chromatography on the Sephadex G-75 column, and the intraliposomal radioactivity was measured. […]
(§3) Figure 3 Identification of residue responsible for itaconate inhibition. […] Transport activity of the WT (○), C136A (●), C155A (Δ), C23V/C58V/C89S/C155V/C283S (▲), and C23V/C58V/C89S/C136V/C155V/C283S (□) was measured by adding 0.1 mM [^3H]carnitine after treatment by itaconate at the indicated concentrations. […]

CAC C136A mutant = target: T2, CAC C136A mutant (Rattus norvegicus, UniProt P97521, C136A); test: Transport assay in proteoliposomes, CAC mutant C136A; details: mutant lacking C136; read-out: IC50 for itaconate inhibition
T2 construct: made in house; host or cells: E. coli C0214
T2 sequence (P97521 1-301 C136A): T1 sequence (P97521 1-301 C155A) with C136A, A155C
Description: as §1, §2, §3

[1] = target: T3, CAC C23V/C58V/C89S/C136V/C155V/C283S (C-less) mutant (Rattus norvegicus, UniProt P97521, C136V/C155V/C23V/C283S/C58V/C89S); test: Transport assay in proteoliposomes, C-less CAC mutant
T3 construct: made in house; host or cells: E. coli C0214
T3 sequence (P97521 1-301 C23V/C58V/C89S/C136V/C155V/C283S): T1 sequence (P97521 1-301 C155A) with C23V, C58V, C89S, C136V, A155V, C283S
Description: As previously described, the pMW7-WTratCAC recombinant plasmid was used for over-expressing the rat CAC [22]. The overlap extension method was used to introduce the mutations; in the main time, NdeI and HindIII restriction sites were also added using appropriate primers. The PCR products were purified by the QIAEX II Gel Extraction Kit (QIAGEN) and digested with NdeI and HindIII and then ligated into the pMW7. All mutations were verified by DNA sequencing. The resulting plasmid constructs were transformed into E. coli C0214. Overexpression, inclusion body fraction preparation, and purification of the CAC proteins were performed as previously described.
As previously described, recombinant CAC (WT and mutants) and ORC1 proteins were used for proteoliposome formation. For experiments with native CAC, ORC1, or ANT proteins, rat liver mitochondria, or HeLa cell mitochondria, the latter for the CAC alone, were first purified using the standard procedure of cell disruption and differential centrifugation. Then proteins were extracted using 3% Triton X-100 and reconstituted as described for the recombinant proteins. The concentration of intraliposomal carnitine and ornithine was 15 mM and 30 mM, respectively, in all samples.
To test the transport activity of the CAC, 550 μL of proteoliposomes was passed through a Sephadex G-75 column to remove the external substrate. Six hundred μL of the turbid eluate was collected, divided into samples of 100 μL each, and used for transport measurement by the inhibitor-stop method. Transport was started by adding 0.1 mM [^3H]carnitine ([^3H]ornitine or [^3H]ATP) to proteoliposome samples and stopped with 1.5 mM NEM (N-ethylmaleimide) at the indicated time interval. In the control samples, NEM was added with the labeled substrate at time zero. Transport rates were measured in 10 min, i.e., within the initial linear range of the time course, at 25 °C. After terminating the transport reaction, the external substrate was removed by chromatography on the Sephadex G-75 column, and the intraliposomal radioactivity was measured. The experimental values were corrected by subtracting the controls.
Figure 3 Identification of residue responsible for itaconate inhibition. (a) Dose–response analysis of the Cys mutants of CAC for the inhibition by itaconate was performed. Transport activity of the WT (○), C136A (●), C155A (Δ), C23V/C58V/C89S/C155V/C283S (▲), and C23V/C58V/C89S/C136V/C155V/C283S (□) was measured by adding 0.1 mM [^3H]carnitine after treatment by itaconate at the indicated concentrations. Transport activity (µmol/10 min/mg) is: WT 1.80 ± 0.31; C136A 0.91 ± 0.10; C155A 1.00 ± 0.17; C23V/C58V/C89S/C155V/C283S 1.02 ± 0.159; C23V/C58V/C89S/C136V/C155V/C283S 0.71 ± 0.22. (b) Dose–response analysis of proteoliposomes reconstituted native (○) or recombinant ORC (●) incubated with itaconate at the indicated concentrations. Transport activity was measured by adding 0.1 [^3H]ornithine, respectively, as described in Materials and Methods. The data are expressed as a percent of the controls (no addition of itaconate) and are means ± SD from three independent experiments.
Figure 4 Lysine contribution to CAC inhibition by itaconate. Protection of PLP (pyridoxal phosphate) from inhibition by itaconate on C-less CAC was carried out. C-less mutant (i.e., C23V/C58V/C89S/C136V/C155V/C283S) was reconstituted into proteoliposomes and treated or not treated with 30 mM PLP for 10 min (“Contr” or “PLP” column, respectively). […]

C=C(CC(=O)O)C(=O)O [itaconate]
IC50 (CAC C155A mutant): 3.8 ± 0.64 mM | IC50 (CAC C136A mutant): 15 ± 2.1 mM | effect on PLP pretreated (protected) C-less CAC ([1]; 15 mM itaconate added to 30 mM PLP pretreated protein, reactants removed by G-75): inefficacy | effect on C-less CAC transport ([1]; 15 mM itaconate, no PLP preincubation): inhibited | IC50 ([1]; C-less mutant, read-out: IC50 for itaconate inhibition): 15 ± 2.4 mM

Reference: publication PMC10296061, “Inhibition of the Mitochondrial Carnitine/Acylcarnitine Carrier by Itaconate through Irreversible Binding to Cysteine 136: Possible Pathophysiological Implications” (Biomolecules, 2023)
